In PubChem BioAssay AID256 (DTP/NCI, 2004):
Several values for one entry are separate records, joined by “and”; a condition that tells them apart may be missing. Equal values may be shown once. Toxic doses and inconclusive results are not listed.

Tested on: CD2F1 mice, L1210 leukemia ip, survival T/C
Test: NCI In Vivo Anticancer Drug Screen. Data for tumor model L1210 Leukemia (intraperitoneal) in CD2F1 (CDF1) mice
Details: higher = longer survival
Summary of the method: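 Vehicle-treated tumor-bearing mice served as controls (C) for compound-treated mice (T). Reported figure is T divided by C.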

[1] = endpoint: mean survival time, dose: 100.0 mg/kg/injection, schedule: Q04DX003 (ip), vehicle: saline
[2] = endpoint: mean survival time, dose: 400.0 mg/kg/injection, schedule: Q04DX003 (ip), vehicle: saline
[3] = endpoint: mean survival time, dose: 6.25 mg/kg/injection, schedule: Q04DX003 (ip), vehicle: saline
[4] = endpoint: mean survival time, dose: 100.0 mg/kg/injection, schedule: Q01DX001 (ip), vehicle: saline with Tween-80
[5] = endpoint: mean survival time, dose: 200.0 mg/kg/injection, schedule: Q01DX001 (ip), vehicle: saline with Tween-80
[6] = endpoint: mean survival time, dose: 400.0 mg/kg/injection, schedule: Q01DX001 (ip), vehicle: saline with Tween-80
[7] = endpoint: mean survival time, dose: 100.0 mg/kg/injection, schedule: Q04DX002 (ip), vehicle: saline with Tween-80
[8] = endpoint: mean survival time, dose: 200.0 mg/kg/injection, schedule: Q04DX002 (ip), vehicle: saline with Tween-80
[9] = endpoint: mean survival time, dose: 400.0 mg/kg/injection, schedule: Q04DX002 (ip), vehicle: saline with Tween-80
[10] = endpoint: mean survival time, dose: 6.25 mg/kg/injection, schedule: Q01DX009 (ip), vehicle: saline with Tween-80
[11] = endpoint: mean survival time, dose: 12.5 mg/kg/injection, schedule: Q01DX009 (ip), vehicle: saline with Tween-80
[12] = endpoint: mean survival time, dose: 25.0 mg/kg/injection, schedule: Q01DX009 (ip), vehicle: saline with Tween-80
[13] = endpoint: mean survival time, dose: 25.0 mg/kg/injection, schedule: Q04DX003 (ip), vehicle: saline with Tween-80
[14] = endpoint: mean survival time, dose: 100.0 mg/kg/injection, schedule: Q01DX009 (ip), vehicle: saline with Tween-80
[15] = endpoint: mean survival time, dose: 50.0 mg/kg/injection, schedule: Q01DX009 (ip), vehicle: saline with Tween-80
[16] = endpoint: mean survival time, dose: 100.0 mg/kg/injection, schedule: Q04DX003 (ip), vehicle: saline with Tween-80
[17] = endpoint: mean survival time, dose: 200.0 mg/kg/injection, schedule: Q04DX003 (ip), vehicle: saline
[18] = endpoint: mean survival time, dose: 200.0 mg/kg/injection, schedule: Q04DX003 (ip), vehicle: saline with Tween-80
[19] = endpoint: mean survival time, dose: 400.0 mg/kg/injection, schedule: Q04DX003 (ip), vehicle: saline with Tween-80

O=C(NO)c1cccc(O)c1O
T/C (endpoint: median survival time, dose: 200.0 mg/kg/injection, schedule: Q01DX009 (ip), vehicle: distilled water + Tween-80): 162 % of control | T/C (endpoint: median survival time, dose: 300.0 mg/kg/injection, schedule: Q01DX009 (ip), vehicle: distilled water + Tween-80): 170 % of control | T/C (endpoint: median survival time, dose: 450.0 mg/kg/injection, schedule: Q01DX009 (ip), vehicle: distilled water + Tween-80): 104 % of control

CCCCOC(=O)C1(N)CCCC1
T/C [1]: 110 % of control | T/C [2]: 102 % of control

O=C([O][Hg][C](F)(F)F)C(F)(F)F
T/C [3]: 98 % of control

Clc1ccc(Oc2ccccc2)cc1
T/C [4]: 96 % of control | T/C [5]: 86 % of control | T/C [6]: 91 % of control

CCCCOP(=O)(OC)OCCCC
T/C [7]: 94 % of control | T/C [8]: 102 % of control

O=c1[nH]nc([O-])c2c1[n+](Cc1ccccc1)cn2Cc1ccccc1
T/C (endpoint: mean survival time, dose: 9.4 mg/kg/injection, schedule: Q01DX005 (ip), vehicle: water): 94 % of control | T/C (endpoint: mean survival time, dose: 18.8 mg/kg/injection, schedule: Q01DX005 (ip), vehicle: water): 98 % of control | T/C (endpoint: mean survival time, dose: 37.5 mg/kg/injection, schedule: Q01DX005 (ip), vehicle: water): 91 % of control | T/C (endpoint: mean survival time, dose: 75.0 mg/kg/injection, schedule: Q01DX005 (ip), vehicle: water): 88 % of control

COC(=O)c1ccc(OC)c2nc3c(C=O)c(OC)c(C)c(OC)c3nc12
T/C [4]: 94 % of control | T/C [7]: 98 % of control | T/C [5]: 95 % of control | T/C [8]: 106 % of control | T/C [6]: 103 % of control | T/C [9]: 106 % of control

O=C(O)c1cccc(F)c1Br
T/C [7]: 95 % of control | T/C [8]: 95 % of control | T/C [9]: 87 % of control

COC1(OC)C(Cl)=C(Cl)C(Cl)=C1Cl
T/C [10]: 96 % of control | T/C [11]: 98 % of control | T/C (endpoint: mean survival time, dose: 12.5 mg/kg/injection, schedule: Q04DX003 (ip), vehicle: saline with Tween-80): 111 % of control | T/C [12]: 96 % of control | T/C [13]: 111 % of control

CNC(=O)Nc1ccncc1
T/C [14]: 97 % of control | T/C (endpoint: mean survival time, dose: 200.0 mg/kg/injection, schedule: Q01DX009 (ip), vehicle: saline with Tween-80): 102 % of control | T/C (endpoint: mean survival time, dose: 400.0 mg/kg/injection, schedule: Q01DX009 (ip), vehicle: saline with Tween-80): 102 % of control

C/C=C1\CC2C=CC1C2 (centres undefined) (tested in a mixture with another compound)
T/C (endpoint: mean survival time, dose: 80.5 mg/kg/injection, schedule: Q01DX009 (ip), vehicle: saline with Tween-80): 98 % of control | T/C (endpoint: mean survival time, dose: 161.0 mg/kg/injection, schedule: Q01DX009 (ip), vehicle: saline with Tween-80): 87 % of control

CC(CCc1ccccc1)NC(C)C(O)c1ccc(O)cc1 (centres undefined)
T/C [12]: 102 % of control | T/C [15]: 96 % of control | T/C [14]: 102 % of control | T/C [16]: 102 % of control

Cn1nc(CC#N)c2c(N)ncnc21
T/C (endpoint: mean survival time, dose: 12.5 mg/kg/injection, schedule: Q01DX005 (ip), vehicle: water): 96 % of control | T/C (endpoint: mean survival time, dose: 25.0 mg/kg/injection, schedule: Q01DX005 (ip), vehicle: water): 93 % of control | T/C (endpoint: mean survival time, dose: 50.0 mg/kg/injection, schedule: Q01DX005 (ip), vehicle: water): 92 % of control | T/C (endpoint: mean survival time, dose: 100.0 mg/kg/injection, schedule: Q01DX005 (ip), vehicle: water): 88 % of control | T/C (endpoint: mean survival time, dose: 200.0 mg/kg/injection, schedule: Q01DX005 (ip), vehicle: water): 91 % of control

CN(C)c1ncnc(-c2ccncc2)n1
T/C [7]: 88 % of control | T/C [8]: 100 % of control

O=C1OC(Cl)(c2cccc3ccccc23)c2ccccc21 (centres undefined)
T/C (endpoint: mean survival time, dose: 100.0 mg/kg/injection, schedule: Q04DX003 (ip), vehicle: Klucel (hydroxypropylcellulose) (HPC)): 87 % of control | T/C (endpoint: mean survival time, dose: 200.0 mg/kg/injection, schedule: Q04DX003 (ip), vehicle: Klucel (hydroxypropylcellulose) (HPC)): 87 % of control | T/C (endpoint: mean survival time, dose: 400.0 mg/kg/injection, schedule: Q04DX003 (ip), vehicle: Klucel (hydroxypropylcellulose) (HPC)): 94 % of control

CN(C)OC(=O)Nc1ccc([N+](=O)[O-])cc1
T/C [7]: 97 % of control | T/C [8]: 112 % of control | T/C [9]: 108 % of control

CC1OC(OCc2ccc(-c3ccccc3)cc2)CC(N)C1O (centres undefined)
T/C (endpoint: mean survival time, dose: 0.78 mg/kg/injection, schedule: Q01DX001 (ip), vehicle: water): 94 % of control | T/C (endpoint: mean survival time, dose: 1.56 mg/kg/injection, schedule: Q01DX001 (ip), vehicle: water): 97 % of control | T/C (endpoint: mean survival time, dose: 3.13 mg/kg/injection, schedule: Q01DX001 (ip), vehicle: water): 95 % of control | T/C (endpoint: mean survival time, dose: 6.25 mg/kg/injection, schedule: Q01DX001 (ip), vehicle: water): 106 % of control | T/C (endpoint: mean survival time, dose: 12.5 mg/kg/injection, schedule: Q01DX001 (ip), vehicle: water): 97 % of control | T/C (endpoint: mean survival time, dose: 25.0 mg/kg/injection, schedule: Q01DX001 (ip), vehicle: water): 105 % of control | T/C (endpoint: median survival time, dose: 1.56 mg/kg/injection, schedule: Q04DX003 (ip), vehicle: water): 106 % of control | T/C (endpoint: median survival time, dose: 3.13 mg/kg/injection, schedule: Q04DX003 (ip), vehicle: water): 98 % of control | T/C (endpoint: median survival time, dose: 6.25 mg/kg/injection, schedule: Q04DX003 (ip), vehicle: water): 109 % of control | T/C (endpoint: median survival time, dose: 12.5 mg/kg/injection, schedule: Q04DX003 (ip), vehicle: water): 100 % of control | T/C (endpoint: median survival time, dose: 25.0 mg/kg/injection, schedule: Q04DX003 (ip), vehicle: water): 106 % of control

CCNc1cc(Cl)c(C(=O)O)cc1[N+](=O)[O-]
T/C [1]: 105 % of control | T/C [17]: 110 % of control | T/C [2]: 115 % of control

NNC(=S)S
T/C (endpoint: mean survival time, dose: 5.0 mg/kg/injection, schedule: Q01DX001 (ip), vehicle: saline): 96 % of control | T/C (endpoint: mean survival time, dose: 10.0 mg/kg/injection, schedule: Q01DX001 (ip), vehicle: saline): 98 % of control

COc1ccc(C(Cn2ccnc2)Sc2ccc(Cl)c(Cl)c2)cc1 (centres undefined)
T/C [10]: 96 % of control and 103 % of control | T/C [11]: 103 % of control and 104 % of control | T/C [12]: 98 % of control and 101 % of control | T/C [15]: 96 % of control and 108 % of control | T/C [14]: 101 % of control and 105 % of control

Cn1c(=O)c2c(ncn2C)n(C)c1=O.[Cl][Pt]([Cl])[Cl]
T/C (endpoint: mean survival time, dose: 3.13 mg/kg/injection, schedule: Q04DX003 (ip), vehicle: saline): 112 % of control | T/C (endpoint: mean survival time, dose: 3.13 mg/kg/injection, schedule: Q04DX003 (ip), vehicle: water): 98 % of control | T/C [3]: 104 % of control | T/C (endpoint: mean survival time, dose: 6.25 mg/kg/injection, schedule: Q04DX003 (ip), vehicle: water): 95 % of control | T/C (endpoint: mean survival time, dose: 12.5 mg/kg/injection, schedule: Q04DX003 (ip), vehicle: saline): 106 % of control | T/C (endpoint: mean survival time, dose: 12.5 mg/kg/injection, schedule: Q04DX003 (ip), vehicle: water): 104 % of control | T/C (endpoint: mean survival time, dose: 25.0 mg/kg/injection, schedule: Q04DX003 (ip), vehicle: saline): 102 % of control | T/C (endpoint: mean survival time, dose: 25.0 mg/kg/injection, schedule: Q04DX003 (ip), vehicle: water): 102 % of control | T/C (endpoint: mean survival time, dose: 50.0 mg/kg/injection, schedule: Q04DX003 (ip), vehicle: saline): 106 % of control | T/C (endpoint: mean survival time, dose: 50.0 mg/kg/injection, schedule: Q04DX003 (ip), vehicle: water): 104 % of control | T/C [1]: 112 % of control | T/C (endpoint: mean survival time, dose: 100.0 mg/kg/injection, schedule: Q04DX003 (ip), vehicle: water): 118 % of control | T/C [17]: 111 % of control

C[N+](C)(CC(=O)Nc1cccc(C(F)(F)F)c1)CC(=O)Nc1cccc(C(F)(F)F)c1
T/C [13]: 100 % of control | T/C (endpoint: mean survival time, dose: 50.0 mg/kg/injection, schedule: Q04DX003 (ip), vehicle: saline with Tween-80): 88 % of control

C=C=CCCCCOC1CCCCO1 (centres undefined)
T/C [4]: 89 % of control | T/C [5]: 89 % of control | T/C [6]: 89 % of control

CC(C)(CI)CI
T/C [16]: 104 % of control | T/C [18]: 102 % of control | T/C [19]: 96 % of control

O=S(=O)(N(c1ccccc1)S(=O)(=O)C(F)(F)F)C(F)(F)F
T/C (endpoint: mean survival time, dose: 50.0 mg/kg/injection, schedule: Q01DX009 (ip), vehicle: Klucel (hydroxypropylcellulose) (HPC)): 91 % of control | T/C (endpoint: mean survival time, dose: 100.0 mg/kg/injection, schedule: Q01DX009 (ip), vehicle: Klucel (hydroxypropylcellulose) (HPC)): 88 % of control | T/C (endpoint: mean survival time, dose: 200.0 mg/kg/injection, schedule: Q01DX009 (ip), vehicle: Klucel (hydroxypropylcellulose) (HPC)): 88 % of control

CC1=NNC(=O)C1NNc1ccccc1 (centres undefined)
T/C [16]: 96 % of control | T/C [18]: 96 % of control | T/C [19]: 96 % of control
